Results: patent publication US20230085307A1, “PYRIDAZINONE COMPOUND AND HERBICIDE” (NISSAN CHEMICAL CORPORATION, priority 2019, published 2023)

Key:
Italian ryegrass = experiment: Test Example 4: herbicidal effect by soil treatment (Table 19, symbol K); assay type: in vivo, Italian ryegrass (Lolium multiflorum)
Procedure, shortened: (§1)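 Step 1: sow seeds in sterilized diluvial soil, cover ~1.5 cm. Step 2: spray diluted emulsion onto soil surface at predetermined rate. Step 3: greenhouse, 25–30° C, three weeks. Step 4: grade effect on each plant by earlier criteria.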

Japanese bulrush = experiment: Test Example 1: herbicidal activity, application before weed generation under submerged conditions (Table 16, symbol B); assay type: in vivo, Japanese bulrush (Schoenoplectus juncoides)
Procedure, shortened: (§2)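 Alluvial soil was flooded to 4 cm depth, weed seeds were sown mixed and 2.5-leaf rice seedlings were transplanted. On sowing day, the compound's emulsion, diluted in water to a set dose, was applied to the water surface. Plants grew at 25–30 °C and were scored 0–5 after three weeks.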

oval-leafed pondweed = experiment: Test Example 1: herbicidal activity, application before weed generation under submerged conditions (Table 16, symbol C); assay type: in vivo, oval-leafed pondweed (Monochoria vaginalis)
Procedure, shortened: as §2

lambsquarters = experiment: Test Example 4: herbicidal effect by soil treatment (Table 19, symbol O); assay type: in vivo, lambsquarters (Chenopodium album)
Procedure, shortened: as §1

rice flat sedge = experiment: Test Example 3: herbicidal effect by foliage application, Wagner pot (Table 18, symbol E); assay type: in vivo, rice flat sedge (Cyperus iria)
Procedure, shortened: (§3)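 Plants were sown in alluvial soil held under 0.1–0.5 cm standing water and grown 14 days in a greenhouse at 25–30 °C. An emulsifiable formulation, water-diluted to the set dose, was then sprayed onto the foliage, and effects were scored three weeks later using previously defined criteria.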

persian speedwell = experiment: Test Example 4: herbicidal effect by soil treatment (Table 19, symbol R); assay type: in vivo, Persian speedwell (Veronica persica)
Procedure, shortened: as §1

barnyard grass [1] = experiment: Test Example 3: herbicidal effect by foliage application, Wagner pot (Table 18, symbol H); assay type: in vivo, barnyard grass (Echinochloa crus-galli)
Procedure, shortened: as §3

blackgrass = experiment: Test Example 5: herbicidal effect by foliage application, plastic box (Table 20, symbol J); assay type: in vivo, blackgrass (Alopecurus myosuroides); conditions: foliage application, 3 weeks after application
Procedure, shortened: (§4)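 Foliar spray test: emulsion formulation diluted in water to a set application rate, sprayed onto 14-day-old plants raised in diluvial soil at 25° C to 30° C under glass. Both herbicidal effect and crop effect rated visually three weeks later.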

velvetleaf = experiment: Test Example 5: herbicidal effect by foliage application, plastic box (Table 20, symbol M); assay type: in vivo, velvetleaf (Abutilon theophrasti); conditions: foliage application, 3 weeks after application
Procedure, shortened: as §4

windgrass [2] = experiment: Test Example 4: herbicidal effect by soil treatment (Table 19, symbol L); assay type: in vivo, windgrass (Apera spica-venti)
Procedure, shortened: as §1

windgrass [3] = experiment: Test Example 5: herbicidal effect by foliage application, plastic box (Table 20, symbol L); assay type: in vivo, windgrass (Apera spica-venti); conditions: foliage application, 3 weeks after application
Procedure, shortened: as §4

late watergrass = experiment: Test Example 1: herbicidal activity, application before weed generation under submerged conditions (Table 16, symbol A); assay type: in vivo, late watergrass (Echinochloa oryzicola)
Procedure, shortened: as §2

barnyard grass [4] = experiment: Test Example 5: herbicidal effect by foliage application, plastic box (Table 20, symbol H); assay type: in vivo, barnyard grass (Echinochloa crus-galli); conditions: foliage application, 3 weeks after application
Procedure, shortened: as §4

southern crabgrass = experiment: Test Example 5: herbicidal effect by foliage application, plastic box (Table 20, symbol F); assay type: in vivo, southern crabgrass (Digitaria ciliaris); conditions: foliage application, 3 weeks after application
Procedure, shortened: as §4

Chinese sprangletop = experiment: Test Example 3: herbicidal effect by foliage application, Wagner pot (Table 18, symbol D); assay type: in vivo, chinese sprangletop (Leptochloa chinensis)
Procedure, shortened: as §3

wild oat = experiment: Test Example 5: herbicidal effect by foliage application, plastic box (Table 20, symbol I); assay type: in vivo, wild oat (Avena fatua); conditions: foliage application, 3 weeks after application
Procedure, shortened: as §4

chickweed = experiment: Test Example 4: herbicidal effect by soil treatment (Table 19, symbol P); assay type: in vivo, common chickweed (Stellaria media)
Procedure, shortened: as §1

| SMILES | K: Italian ryegrass, herbicidal effect rating (Italian ryegrass; AAH 320 g/ha) | Herbicidal effect on B: Japanese bulrush (grade 0-5) (Japanese bulrush; 320 g/ha applied herbicide) | Herbicidal effect on C: oval-leafed pondweed (grade 0-5) (oval-leafed pondweed; 320 g/ha applied herbicide) | O: lambsquarters, herbicidal effect rating (lambsquarters; AAH 320 g/ha) | herbicidal effect on E (rice flat sedge), rating 0-5 (rice flat sedge; 320 g/ha) | R: persian speedwell, herbicidal effect rating (persian speedwell; AAH 320 g/ha) | herbicidal effect on H (barnyard grass), rating 0-5 (barnyard grass [1]; 320 g/ha) | effect on blackgrass (J) (blackgrass; 320 g/ha) | effect on velvetleaf (M) (velvetleaf; 320 g/ha) | L: windgrass, herbicidal effect rating (windgrass [2]; AAH 320 g/ha) | effect on windgrass (L) (windgrass [3]; 320 g/ha) | Herbicidal effect on A: late watergrass (grade 0-5) (late watergrass; 320 g/ha applied herbicide) | effect on barnyard grass (H) (barnyard grass [4]; 320 g/ha) | effect on southern crabgrass (F) (southern crabgrass; 320 g/ha) | herbicidal effect on D (Chinese sprangletop), rating 0-5 (Chinese sprangletop; 320 g/ha) | effect on wild oat (I) (wild oat; 320 g/ha) | P: chickweed, herbicidal effect rating (chickweed; AAH 320 g/ha) | further results |
| --- | --- | --- | --- | --- | --- | --- | --- | --- | --- | --- | --- | --- | --- | --- | --- | --- | --- | --- |
| C#CC(C)Oc1ccc(-c2sc3ccccc3c2-c2c(OCOCCOC)c(C)nn(C)c2=O)cc1 (racemic) [1-218] |  |  |  |  |  |  |  |  |  |  |  |  |  |  |  |  |  | K: Italian ryegrass, herbicidal effect rating (Italian ryegrass; AAH 187 g/ha): 0 (Herbicidal rate of 5% or less (almost no effect)); Herbicidal effect on B: Japanese bulrush (grade 0-5) (Japanese bulrush; 100 g/ha applied herbicide): 3 (Herbicidal rate of 40% or more and less than 70%); Herbicidal effect on C: oval-leafed pondweed (grade 0-5) (oval-leafed pondweed; 100 g/ha applied herbicide): 0 (Herbicidal rate of 5% or less (almost no effect)); O: lambsquarters, herbicidal effect rating (lambsquarters; AAH 187 g/ha): 3 (Herbicidal rate of 40% or more and less than 70%); herbicidal effect on E (rice flat sedge), rating 0-5 (rice flat sedge; 100 g/ha): 4 (Herbicidal rate of 70% or more and less than 90%); R: persian speedwell, herbicidal effect rating (persian speedwell; AAH 187 g/ha): 5 (Herbicidal rate of 90% or more (almost completely withered)); herbicidal effect on H (barnyard grass), rating 0-5 (barnyard grass [1]; 100 g/ha): 4 (Herbicidal rate of 70% or more and less than 90%); effect on blackgrass (J) (blackgrass; 187 g/ha): 4 (Herbicidal rate of 70% or more and less than 90%); effect on velvetleaf (M) (velvetleaf; 187 g/ha): 4 (Herbicidal rate of 70% or more and less than 90%); L: windgrass, herbicidal effect rating (windgrass [2]; AAH 187 g/ha): 0 (Herbicidal rate of 5% or less (almost no effect)); effect on windgrass (L) (windgrass [3]; 187 g/ha): 0 (Herbicidal rate of 5% or less (almost no effect)); Herbicidal effect on A: late watergrass (grade 0-5) (late watergrass; 100 g/ha applied herbicide): 4 (Herbicidal rate of 70% or more and less than 90%); effect on barnyard grass (H) (barnyard grass [4]; 187 g/ha): 3 (Herbicidal rate of 40% or more and less than 70%); effect on southern crabgrass (F) (southern crabgrass; 187 g/ha): 0 (Herbicidal rate of 5% or less (almost no effect)); herbicidal effect on D (Chinese sprangletop), rating 0-5 (Chinese sprangletop; 100 g/ha): 4 (Herbicidal rate of 70% or more and less than 90%); effect on wild oat (I) (wild oat; 187 g/ha): 0 (Herbicidal rate of 5% or less (almost no effect)); P: chickweed, herbicidal effect rating (chickweed; AAH 187 g/ha): 1 (Herbicidal rate of 5% or more and less than 20%) |
| CCC(COc1ccc(-c2sc3ccccc3c2-c2c(O)c(C)nn(C)c2=O)cc1)OC (racemic) [1-230] | 4 (Herbicidal rate of 70% or more and less than 90%) | 5 (Herbicidal rate of 90% or more (almost completely withered)) | 4 (Herbicidal rate of 70% or more and less than 90%) | 5 (Herbicidal rate of 90% or more (almost completely withered)) | 3 (Herbicidal rate of 40% or more and less than 70%) | 5 (Herbicidal rate of 90% or more (almost completely withered)) | 5 (Herbicidal rate of 90% or more (almost completely withered)) | 5 (Herbicidal rate of 90% or more (almost completely withered)) | 5 (Herbicidal rate of 90% or more (almost completely withered)) | 0 (Herbicidal rate of 5% or less (almost no effect)) | 4 (Herbicidal rate of 70% or more and less than 90%) | 5 (Herbicidal rate of 90% or more (almost completely withered)) | 5 (Herbicidal rate of 90% or more (almost completely withered)) | 5 (Herbicidal rate of 90% or more (almost completely withered)) | 5 (Herbicidal rate of 90% or more (almost completely withered)) | 4 (Herbicidal rate of 70% or more and less than 90%) | 2 (Herbicidal rate of 20% or more and less than 40%) |  |
| Cc1nn(C)c(=O)c(-c2c(-c3ccc(OCCBr)cc3)sc3ccccc23)c1O [1-204] | 0 (Herbicidal rate of 5% or less (almost no effect)) | 3 (Herbicidal rate of 40% or more and less than 70%) | 3 (Herbicidal rate of 40% or more and less than 70%) | 3 (Herbicidal rate of 40% or more and less than 70%) | 5 (Herbicidal rate of 90% or more (almost completely withered)) | 4 (Herbicidal rate of 70% or more and less than 90%) | 4 (Herbicidal rate of 70% or more and less than 90%) | 0 (Herbicidal rate of 5% or less (almost no effect)) | 5 (Herbicidal rate of 90% or more (almost completely withered)) | 0 (Herbicidal rate of 5% or less (almost no effect)) | 0 (Herbicidal rate of 5% or less (almost no effect)) | 3 (Herbicidal rate of 40% or more and less than 70%) | 3 (Herbicidal rate of 40% or more and less than 70%) | 4 (Herbicidal rate of 70% or more and less than 90%) | 2 (Herbicidal rate of 20% or more and less than 40%) | 0 (Herbicidal rate of 5% or less (almost no effect)) | 0 (Herbicidal rate of 5% or less (almost no effect)) |  |
| Cc1nn(C)c(=O)c(-c2c(-c3ccc(OCCC(F)(F)F)cc3)sc3ccccc23)c1O [1-206] | 5 (Herbicidal rate of 90% or more (almost completely withered)) | 5 (Herbicidal rate of 90% or more (almost completely withered)) | 5 (Herbicidal rate of 90% or more (almost completely withered)) | 5 (Herbicidal rate of 90% or more (almost completely withered)) | 5 (Herbicidal rate of 90% or more (almost completely withered)) | 5 (Herbicidal rate of 90% or more (almost completely withered)) | 5 (Herbicidal rate of 90% or more (almost completely withered)) | 5 (Herbicidal rate of 90% or more (almost completely withered)) | 5 (Herbicidal rate of 90% or more (almost completely withered)) | 3 (Herbicidal rate of 40% or more and less than 70%) | 5 (Herbicidal rate of 90% or more (almost completely withered)) | 5 (Herbicidal rate of 90% or more (almost completely withered)) | 5 (Herbicidal rate of 90% or more (almost completely withered)) | 5 (Herbicidal rate of 90% or more (almost completely withered)) | 5 (Herbicidal rate of 90% or more (almost completely withered)) | 2 (Herbicidal rate of 20% or more and less than 40%) | 3 (Herbicidal rate of 40% or more and less than 70%) |  |
